Values after ≈ are worked out from the molar mass of the structure shown. “Also recorded” adds a separate entry of the source. Where two headings read alike, the source gives them in different places.
Legend:
[1] = tested on: Lovo/DX; experiment: MTT cytotoxicity assay, multidrug-resistant subline Lovo/DX; type: cell-based, human; conditions: for IC50: Homo sapiens, read-out: IC50 LOVO/DX; for cross resistance / resistance in Lovo/DX (in words): Lovo/DX subline; for RI (resistance index): ratio of the IC50 for the resistant line cell to the IC50 for the sensitive cell line
Method: (§1) The evaluation of the biological activity for the compounds of this invention was performed in vitro and in vivo following the protocols developed by the U.S. National Cancer Institute.
(§2) The evaluation of the in vitro cytotoxic activity of the compounds of the invention was performed using a human colon adenocarcinoma cell line (Lovo) isolated from a metastatic nodule, and a subline expressing multidrug resistance. The subline is resistant to a number of antitumor agents, among which are doxorubicin, VP-16, and vincristine.

[2] = cited from earlier work; for cardiotoxicity in animals (in words): animal studies
[3] = i.p., non-tumor bearing rats, equieffective antitumor dosages; cited from earlier work
[4] = tested on: advanced breast cancer, acute leukemia and lymphoma; conditions: clinical trials; cited from earlier work
[5] = tested on: human colon adenocarcinoma cell line (Lovo); experiment: MTT cytotoxicity assay, Lovo cell line; type: cell-based; conditions: read-out: IC50 LOVO
Method: as §1, §2

[6] = in vivo; cited from earlier work
[7] = mostly in patients previously treated with doxorubicin; cited from earlier work
[8] = rat; cited from earlier work
[9] = dose limiting, phase I and phase II; cited from earlier work
[10] = tested on: Lovo/DX; conditions: characterisation of subline (Grandi et al. 1986); cited from earlier work
[11] = tested on: cell histotypes developing resistance against doxorubicin mediated by overexpression of glycoprotein P; conditions: doxorubicin-resistant cells; cited from earlier work
[12] = Lovo/DX (resistant) cells, MTT assay
[13] = Lovo (sensitive) cells, MTT assay

O=C1c2c(O)ccc(O)c2C(=O)c2c(NCCNCCO)ccc(NCCNCCO)c21 [MITOXANTRONE, 5,8-dihydroxy-1,4-bis{[2-(2-hydroxyethylamino)ethyl]amino}anthracene-9,10-dione]
IC50 ([1]; LoVo/DX): 0.9 mg/L (≈ 2.02 µM)
cross resistance / resistance in Lovo/DX (in words) [1]: acquired resistance
cardiotoxicity in animals (in words) [2]: diminished cardiotoxicity in comparison to doxorubicin
delayed toxicity (in words) [3]: delayed toxicity is observed only with mitoxantrone
clinical antitumor activity (in words) [4]: particularly promising activity in the treatment of advanced breast cancer, acute leukemia and lymphoma
IC50 ([5]; LoVo): 0.04 mg/L (≈ 0.09 µM)
myelodepressive toxicity (in words) [6]: remarkable myelodepressive toxicity
clinical cardiotoxicity (in words) [7]: some clinical cardiotoxicity has been observed

CN(C)CCn1nc2c3c(c(NCCN)ccc31)C(=O)c1ccncc1-2
IC50 [1, 12]: 22.4 mg/L (≈ 63.9 µM)
RI (resistance index) [1]: 44.8
IC50 [5, 13]: 0.5 mg/L (≈ 1.43 µM)

O=C1c2c(O)cccc2-c2nn(CCNCCO)c3ccc(NCCNCCO)c1c23 [CI-941]
nephrotoxicity (in words) [8]: marked nephrotoxicity
neutropenia, W.H.O. grade [9]: 4 W.H.O. grade

CC[C@]1(O)C[C@H]2CN(CCc3c([nH]c4ccccc34)[C@@](C(=O)OC)(c3cc4c(cc3OC)N(C=O)[C@H]3[C@@](O)(C(=O)OC)[C@H](OC(C)=O)[C@]5(CC)C=CCN6CC[C@]43[C@@H]65)C2)C1 [vincristine]
resistance / accumulation in Lovo/DX subline (in words) [10]: resistant

COc1cccc2c1C(=O)c1c(O)c3c(c(O)c1C2=O)C[C@@](O)(C(=O)CO)C[C@@H]3O[C@H]1C[C@H](N)[C@H](O)[C@H](C)O1 [DOXORUBICIN]
IC50 [1, 12]: 66.6 mg/L (≈ 123 µM)
RI (resistance index) [1]: 74
resistance / accumulation in Lovo/DX subline (in words) [10]: resistant; also recorded: reduced accumulation
IC50 ([5]; LoVo): 0.9 mg/L (≈ 1.66 µM)

CN(C)CCNc1ccc2c3c(nn2CCN(C)C)-c2cnccc2C(=O)c13
IC50 [1, 12]: 0.9 mg/L (≈ 2.38 µM)
RI (resistance index) [1]: 1.8
IC50 [5, 13]: 0.5 mg/L (≈ 1.32 µM)

CN(C)CCNc1ccc2c3c(nn2CCN)-c2cnccc2C(=O)c13
IC50 [1, 12]: 5 mg/L (≈ 14.3 µM)
RI (resistance index) [1]: 16.7
IC50 [5, 13]: 0.3 mg/L (≈ 0.856 µM)

O=C1c2ccccc2C(=O)c2c(NCCNCCO)ccc(NCCNCCO)c21 [ametantrone, 1,4-bis{[2-(2-hydroxyethylamino)ethyl]amino}anthracene-9,10-dione]
cross resistance / resistance in Lovo/DX (in words) [1]: acquired resistance
cardiotoxicity in animals (in words) [2]: less cardiotoxic than mitoxantrone
potency relative to mitoxantrone (fold less potent) ([2]; in animals): about 10 fold
myelodepressive toxicity (in words) [6]: remarkable myelodepressive toxicity
cross-resistance (in words) [11]: cross-resistance

COc1cc([C@@H]2c3cc4c(cc3[C@@H](O[C@@H]3O[C@@H]5CO[C@@H](C)O[C@H]5[C@H](O)[C@H]3O)[C@H]3COC(=O)[C@H]23)OCO4)cc(OC)c1O [VP-16]
resistance / accumulation in Lovo/DX subline (in words) [10]: resistant

Reference: patent US5519029A, “2-aminoalkyl-5-aminoalkylamino substituted-isoquinoindazole-6(2H)-ones” (Boehringer Mannheim Italia, S.p.A., priority 1993, dated 1996)
